Species: Rattus norvegicus
Assay: Open TG-GATES - Regimen: Single
Format: toxicity, organism-based, Sprague-Dawley
Parameters: regimen Single, gender Male, age 6 weeks
Conditions: in vivo, po, 0 mg/kg, route gavage, dose level Control; for APTT / Bas / Eos / Fbg / Hb / Ht / Lym / MCH / MCHC / MCV / Mono / Neu / PT / Plat / RBC / Ret / WBC: tissue Blood; for KIDNEY_L / KIDNEY_R / KIDNEY_TOTAL: tissue Kidney; for LIVER: tissue Liver; for ALP / ALT / AST / BUN / CRE / DBIL / GLC / K / LDH / Na / PL / RALB / TBIL / TC / TG / TP / gamma-GTP: tissue Plasma

Question: What does the source list for CC(CCc1ccccc1)NCC(O)c1ccc(O)c(C(N)=O)c1 (stereo not given) [LABETALOL]?
Answer: TERMINAL_BW (3 h): 214.7 g; APTT (3 h): 16 s; Bas (3 h): 0%; Eos (3 h): 1%; Fbg (3 h): 279.6 mg/dL; Hb (3 h): 13 g/dL; Ht (3 h): 38.7%; Lym (3 h): 80.6%; MCH (3 h): 21.4 pg; MCHC (3 h): 33.6%; MCV (3 h): 63.6 fL; Mono (3 h): 3.4%; Neu (3 h): 14.2%; PT (3 h): 13.1 s; Plat (3 h): 108.8 x10_4/uL; RBC (3 h): 608.8 x10_4/ul; Ret (3 h): 8%; WBC (3 h): 90.7 x10_2/uL; KIDNEY_L (3 h): 0.9 g; KIDNEY_R (3 h): 0.9 g; KIDNEY_TOTAL (3 h): 1.8 g; LIVER (3 h): 9.4 g; ALP (3 h): 1611 IU/L; ALT (3 h): 45.8 IU/L; AST (3 h): 77.4 IU/L; BUN (3 h): 11.8 mg/dL; CRE (3 h): 0.2 mg/dL; DBIL (3 h): 0.014 mg/dL; GLC (3 h): 184 mg/dL; K (3 h): 3.8 meq/L; LDH (3 h): 70.6 IU/L; Na (3 h): 142.6 meq/L; PL (3 h): 141.8 mg/dL; RALB (3 h): 2.6 g/dL; TBIL (3 h): 0.048 mg/dL; TC (3 h): 83 mg/dL; TG (3 h): 68.4 mg/dL; TP (3 h): 5.5 g/dL; gamma-GTP (3 h): 1.6 IU/L; TERMINAL_BW (6 h): 213.8 g; APTT (6 h): 16.4 s; Bas (6 h): 0%; Eos (6 h): 1%; Fbg (6 h): 327.6 mg/dL; Hb (6 h): 13.3 g/dL; Ht (6 h): 39%; Lym (6 h): 72.8%; MCH (6 h): 21.8 pg; MCHC (6 h): 34%; MCV (6 h): 63.9 fL; Mono (6 h): 3.4%; Neu (6 h): 22.2%; PT (6 h): 12.9 s; Plat (6 h): 104.3 x10_4/uL; RBC (6 h): 609.8 x10_4/ul; Ret (6 h): 8.3%; WBC (6 h): 100.8 x10_2/uL; KIDNEY_L (6 h): 0.9 g; KIDNEY_R (6 h): 1 g; KIDNEY_TOTAL (6 h): 1.9 g; LIVER (6 h): 8.9 g; ALP (6 h): 1394.4 IU/L; ALT (6 h): 39.8 IU/L; AST (6 h): 73.2 IU/L; BUN (6 h): 8.6 mg/dL; CRE (6 h): 0.2 mg/dL; DBIL (6 h): 0.004 mg/dL; GLC (6 h): 170.2 mg/dL; K (6 h): 4 meq/L; LDH (6 h): 52.4 IU/L; Na (6 h): 142.6 meq/L; PL (6 h): 136.4 mg/dL; RALB (6 h): 2.5 g/dL; TBIL (6 h): 0.038 mg/dL; TC (6 h): 86.2 mg/dL; TG (6 h): 41.8 mg/dL; TP (6 h): 5.4 g/dL; gamma-GTP (6 h): 1.2 IU/L; TERMINAL_BW (9 h): 217.8 g; APTT (9 h): 16.8 s; Bas (9 h): 0%; Eos (9 h): 0.8%; Fbg (9 h): 288 mg/dL; Hb (9 h): 13.4 g/dL; Ht (9 h): 39.5%; Lym (9 h): 80.6%; MCH (9 h): 21.7 pg; MCHC (9 h): 33.9%; MCV (9 h): 64 fL; Mono (9 h): 2.4%; Neu (9 h): 15.4%; PT (9 h): 13.5 s; RBC (9 h): 617.2 x10_4/ul; Ret (9 h): 7.6%; WBC (9 h): 96.4 x10_2/uL; KIDNEY_L (9 h): 0.9 g; KIDNEY_R (9 h): 0.9 g; KIDNEY_TOTAL (9 h): 1.8 g; LIVER (9 h): 8.8 g; ALP (9 h): 1362.6 IU/L; ALT (9 h): 39.4 IU/L; AST (9 h): 72.8 IU/L; BUN (9 h): 10.2 mg/dL; CRE (9 h): 0.2 mg/dL; DBIL (9 h): 0.01 mg/dL; GLC (9 h): 175.6 mg/dL; K (9 h): 3.8 meq/L; LDH (9 h): 49.8 IU/L; Na (9 h): 143 meq/L; PL (9 h): 133 mg/dL; RALB (9 h): 2.6 g/dL; TBIL (9 h): 0.046 mg/dL; TC (9 h): 75.8 mg/dL; TG (9 h): 67.6 mg/dL; TP (9 h): 5.5 g/dL; gamma-GTP (9 h): 1.2 IU/L; TERMINAL_BW (24 h): 220.3 g; APTT (24 h): 16.3 s; Bas (24 h): 0%; Eos (24 h): 1%; Fbg (24 h): 294.8 mg/dL; Hb (24 h): 13 g/dL; Ht (24 h): 38%; Lym (24 h): 78.2%; MCH (24 h): 21.5 pg; MCHC (24 h): 34.1%; MCV (24 h): 63.1 fL; Mono (24 h): 2.6%; Neu (24 h): 17.4%; PT (24 h): 12.8 s; Plat (24 h): 119 x10_4/uL; RBC (24 h): 603.2 x10_4/ul; Ret (24 h): 7.9%; WBC (24 h): 78.3 x10_2/uL; KIDNEY_L (24 h): 0.9 g; KIDNEY_R (24 h): 0.9 g; KIDNEY_TOTAL (24 h): 1.9 g; LIVER (24 h): 10.2 g; ALP (24 h): 1641.6 IU/L; ALT (24 h): 49.8 IU/L; AST (24 h): 75.6 IU/L; BUN (24 h): 15.8 mg/dL; CRE (24 h): 0.2 mg/dL; DBIL (24 h): 0.012 mg/dL; GLC (24 h): 182.2 mg/dL; K (24 h): 4.4 meq/L; LDH (24 h): 59 IU/L; Na (24 h): 141.8 meq/L; PL (24 h): 150.8 mg/dL; RALB (24 h): 2.7 g/dL; TBIL (24 h): 0.03 mg/dL; TC (24 h): 88.4 mg/dL; TG (24 h): 82 mg/dL; TP (24 h): 5.7 g/dL; gamma-GTP (24 h): 1.2 IU/L

From ChEMBL document CHEMBL3885861, “Open TG-GATES”
